The test system of series [1] is Cryptococcus neoformans. The series can be described thus: Synergistic antifungal activity against Cryptococcus neoformans clinical isolate HN19 assessed as fractional inhibitory concentration index incubated for 72 hrs in presence of P163-0892 by broth microdilution method. It is filed as functional. A general note: Broth dilution looks for growth in wells or tubes with falling amounts of substance.

Series [2] relates to Candida tropicalis. In words: Synergistic antifungal activity against Candida tropicalis ATCC20026 assessed as fractional inhibitory concentration index incubated for 48 hrs in presence of P163-0892 by broth microdilution method. It is filed as functional.
For series [3], the system named is Candida tropicalis. The series can be described thus: Antifungal activity against Candida tropicalis ATCC20026 assessed as fungal growth inhibition incubated for 48 hrs in presence of P163-0892 by broth microdilution method. Format: functional.
In series [4] the test system is Cryptococcus neoformans. The series can be described thus: Antifungal activity against Cryptococcus neoformans clinical isolate HN20 assessed as fungal growth inhibition incubated for 72 hrs in presence of P163-0892 by broth microdilution method. It is filed as functional.
Series [5] has as its system Cryptococcus gattii species complex. In words: Antifungal activity against Cryptococcus gattii clinical isolate SCZ20024 assessed as fungal growth inhibition incubated for 72 hrs in presence of P163-0892 by broth microdilution method. Format: functional.
The test system of series [6] is Cryptococcus neoformans. In words: Synergistic antifungal activity against Cryptococcus neoformans clinical isolate HN2 assessed as fractional inhibitory concentration index incubated for 72 hrs in presence of P163-0892 by broth microdilution method. It is filed as functional.
Series [7] has as its system Cryptococcus neoformans. In words: Synergistic antifungal activity against Cryptococcus neoformans clinical isolate HN2-40 assessed as fractional inhibitory concentration index incubated for 72 hrs in presence of P163-0892 by broth microdilution method. It is filed as functional.
Series [8] has as its system Cryptococcus deuterogattii. In words: Antifungal activity against Cryptococcus gattii WM178 infected in Wax moth larvae assessed as survival rate at 10 mg/kg measured after 9 days in presence of P163-0892 by Kaplan-Meier method. Format: functional, Cryptococcus gattii species complex. As to conditions: WM178, 216 h, time 9 day.
Series [9] has as its system Cryptococcus neoformans. The series can be described thus: Antifungal activity against Cryptococcus neoformans clinical isolate 444 assessed as fungal growth inhibition incubated for 72 hrs in presence of P163-0892 by broth microdilution method. Format: functional.
In series [10] the test system is Cryptococcus deuterogattii. The series can be described thus: Antifungal activity against Cryptococcus gattii WM178 assessed as fungal growth inhibition incubated for 72 hrs in presence of P163-0892 by broth microdilution method. It is filed as functional, Cryptococcus gattii species complex.
For series [11], the system named is Cryptococcus gattii species complex. In words: Antifungal activity against Cryptococcus gattii E566 assessed as fungal growth inhibition incubated for 72 hrs in presence of P163-0892 by broth microdilution method. It is filed as functional.
For series [12], the system named is Cryptococcus neoformans. In words: Synergistic antifungal activity against Cryptococcus neoformans clinical isolate 445 assessed as fractional inhibitory concentration index incubated for 72 hrs in presence of P163-0892 by broth microdilution method. It is filed as functional.
Series [13] has as its system Cryptococcus neoformans. The series can be described thus: Antifungal activity against Cryptococcus neoformans clinical isolate HN1 assessed as fungal growth inhibition incubated for 72 hrs in presence of P163-0892 by broth microdilution method. It is filed as functional.
Series [14] deals with Cryptococcus neoformans. In words: Antifungal activity against Cryptococcus neoformans clinical isolate 56992 assessed as fungal growth inhibition incubated for 72 hrs in presence of P163-0892 by broth microdilution method. Format: functional.
The subject of series [15] is Cryptococcus neoformans. In words: Synergistic antifungal activity against Cryptococcus neoformans clinical isolate HN2 assessed as fractional inhibitory concentration index incubated for 72 hrs in presence of Fluconazole by broth microdilution method. Format: functional.
In series [16] the test system is Cryptococcus deuterogattii. In words: Synergistic antifungal activity against Cryptococcus gattii WM178 assessed as fractional inhibitory concentration index incubated for 72 hrs in presence of Fluconazole by broth microdilution method. Format: functional, Cryptococcus gattii species complex.
Series [17] has as its system Cryptococcus neoformans. The series can be described thus: Synergistic antifungal activity against Cryptococcus neoformans clinical isolate 445 assessed as fractional inhibitory concentration index incubated for 72 hrs in presence of Fluconazole by broth microdilution method. It is filed as functional.
Series [18] concerns Cryptococcus neoformans. In words: Synergistic antifungal activity against Cryptococcus neoformans clinical isolate 56992 assessed as fractional inhibitory concentration index incubated for 72 hrs in presence of Fluconazole by broth microdilution method. Format: functional.
In series [19] the test system is Cryptococcus neoformans. The series can be described thus: Synergistic antifungal activity against Cryptococcus neoformans clinical isolate BJ3 assessed as fractional inhibitory concentration index incubated for 72 hrs in presence of Fluconazole by broth microdilution method. It is filed as functional.
Series [20] is described as follows: C0 in Sprague-Dawley rat at 2 mg/kg,iv by LC-MS/MS analysis. Format: ADME, organism-based. As to conditions: in vivo.
Series [21] addresses Voltage-gated inwardly rectifying potassium channel KCNH2 (Homo sapiens, UniProt Q12809). The series can be described thus: Inhibition of human […] potassium channel by automated patch clamp electrophysiology. It is filed as toxicity.
The test system of series [22] is Cryptococcus neoformans. In words: Antifungal activity against Cryptococcus neoformans clinical isolate BJ3 assessed as fungal growth inhibition incubated for 72 hrs in presence of Fluconazole by broth microdilution method. It is filed as functional.
A further series relates to Nakaseomyces glabratus. The series can be described thus: Antifungal activity against Candida glabrata ATCC1182 assessed as fungal growth inhibition incubated for 48 hrs in presence of Fluconazole by broth microdilution method. It is filed as functional.
Series [23] deals with Cryptococcus neoformans. The series can be described thus: Antifungal activity against Cryptococcus neoformans clinical isolate SH68 assessed as fungal growth inhibition incubated for 72 hrs in presence of Fluconazole by broth microdilution method. Format: functional.
For series [24], the system named is Cryptococcus neoformans. In words: Synergistic antifungal activity against Cryptococcus neoformans clinical isolate 443 assessed as fractional inhibitory concentration index incubated for 72 hrs in presence of Fluconazole by broth microdilution method. It is filed as functional.
The nature of series [25]: Half life in Sprague-Dawley rat at 5 mg/kg,po by LC-MS/MS analysis. Format: ADME, organism-based. The conditions noted are these: in vivo.
In series [26] the test system is Cryptococcus neoformans. In words: Synergistic antifungal activity against Cryptococcus neoformans clinical isolate HN17 assessed as fractional inhibitory concentration index incubated for 72 hrs in presence of Fluconazole by broth microdilution method. It is filed as functional.
The subject of series [27] is Cryptococcus neoformans. In words: Antifungal activity against Cryptococcus neoformans H99 assessed as reduction on fungal growth at 2 ug/ml incubated for 48 hrs by plate reader assay. Format: functional. On the set-up: scale not given: the % may be the effect or the level left. The conditions noted are these: dose 2 µg/ml.
Series [28] concerns Cryptococcus gattii species complex. In words: Synergistic antifungal activity against Cryptococcus gattii clinical isolate SCZ20031 assessed as fractional inhibitory concentration index incubated for 72 hrs in presence of Fluconazole by broth microdilution method. It is filed as functional.
Series [29] is described as follows: MRT (0 to t) in Sprague-Dawley rat at 5 mg/kg,po by LC-MS/MS analysis. Format: ADME, organism-based. As to conditions: in vivo.
The test system of series [30] is Cryptococcus neoformans. In words: Antifungal activity against Cryptococcus neoformans clinical isolate HN20 assessed as fungal growth inhibition incubated for 72 hrs in presence of Fluconazole by broth microdilution method. It is filed as functional.
In a further series the test system is Pichia kudriavzevii. The series can be described thus: Antifungal activity against Candida krusei ATCC2340 assessed as fungal growth inhibition incubated for 48 hrs in presence of Fluconazole by broth microdilution method. It is filed as functional.
A short description of series [31]: Half life in Sprague-Dawley rat at 2 mg/kg,iv by LC-MS/MS analysis. It is filed as ADME, organism-based. The conditions noted are these: in vivo.
The subject of series [32] is Cryptococcus neoformans. The series can be described thus: Synergistic antifungal activity against Cryptococcus neoformans clinical isolate HN20 assessed as fractional inhibitory concentration index incubated for 72 hrs in presence of Fluconazole by broth microdilution method. It is filed as functional.
The subject of series [33] is Cryptococcus neoformans. In words: Antifungal activity against Cryptococcus neoformans clinical isolate HN17 assessed as fungal growth inhibition incubated for 72 hrs in presence of Fluconazole by broth microdilution method. It is filed as functional.
The test system of the next series is Candida albicans. The series can be described thus: Synergistic antifungal activity against Candida albicans SC5314 assessed as fractional inhibitory concentration index incubated for 48 hrs in presence of Fluconazole by broth microdilution method. It is filed as functional.
In series [34] the test system is Cryptococcus neoformans. The series can be described thus: Antifungal activity against Cryptococcus neoformans clinical isolate 444 assessed as fungal growth inhibition incubated for 72 hrs in presence of Fluconazole by broth microdilution method. It is filed as functional.
In series [35] the test system is Cryptococcus neoformans. In words: Antifungal activity against Cryptococcus neoformans H99 assessed as fungal growth inhibition incubated for 72 hrs in presence of Fluconazole by broth microdilution method. It is filed as functional.
Series [36] deals with Cryptococcus neoformans. In words: Synergistic antifungal activity against Cryptococcus neoformans clinical isolate 444 assessed as fractional inhibitory concentration index incubated for 72 hrs in presence of Fluconazole by broth microdilution method. Format: functional.

From ChEMBL document CHEMBL5137080, “Discovery of Novel 7-Hydroxy-5-oxo-4,5-dihydrothieno[3,2-b]pyridine-6-carboxamide Derivatives with Potent and Selective Antifungal Activity against Cryptococcus Species” (J Med Chem, 2022) come the findings set out here.

pIC50: −log10 of the molar value.

What is called MIC is the smallest concentration in the dilution series that meets the test's criterion for growth inhibition. As a reminder, the pIC50 is −log10 of the IC50, conventionally taken in molar units. As a reminder, the half-life is the time in which the quantity being followed falls by half. What is called MRT last is a mean duration of stay, worked out from the concentration-time curve.

Sequence of Voltage-gated inwardly rectifying potassium channel KCNH2 (Q12809 whole entry): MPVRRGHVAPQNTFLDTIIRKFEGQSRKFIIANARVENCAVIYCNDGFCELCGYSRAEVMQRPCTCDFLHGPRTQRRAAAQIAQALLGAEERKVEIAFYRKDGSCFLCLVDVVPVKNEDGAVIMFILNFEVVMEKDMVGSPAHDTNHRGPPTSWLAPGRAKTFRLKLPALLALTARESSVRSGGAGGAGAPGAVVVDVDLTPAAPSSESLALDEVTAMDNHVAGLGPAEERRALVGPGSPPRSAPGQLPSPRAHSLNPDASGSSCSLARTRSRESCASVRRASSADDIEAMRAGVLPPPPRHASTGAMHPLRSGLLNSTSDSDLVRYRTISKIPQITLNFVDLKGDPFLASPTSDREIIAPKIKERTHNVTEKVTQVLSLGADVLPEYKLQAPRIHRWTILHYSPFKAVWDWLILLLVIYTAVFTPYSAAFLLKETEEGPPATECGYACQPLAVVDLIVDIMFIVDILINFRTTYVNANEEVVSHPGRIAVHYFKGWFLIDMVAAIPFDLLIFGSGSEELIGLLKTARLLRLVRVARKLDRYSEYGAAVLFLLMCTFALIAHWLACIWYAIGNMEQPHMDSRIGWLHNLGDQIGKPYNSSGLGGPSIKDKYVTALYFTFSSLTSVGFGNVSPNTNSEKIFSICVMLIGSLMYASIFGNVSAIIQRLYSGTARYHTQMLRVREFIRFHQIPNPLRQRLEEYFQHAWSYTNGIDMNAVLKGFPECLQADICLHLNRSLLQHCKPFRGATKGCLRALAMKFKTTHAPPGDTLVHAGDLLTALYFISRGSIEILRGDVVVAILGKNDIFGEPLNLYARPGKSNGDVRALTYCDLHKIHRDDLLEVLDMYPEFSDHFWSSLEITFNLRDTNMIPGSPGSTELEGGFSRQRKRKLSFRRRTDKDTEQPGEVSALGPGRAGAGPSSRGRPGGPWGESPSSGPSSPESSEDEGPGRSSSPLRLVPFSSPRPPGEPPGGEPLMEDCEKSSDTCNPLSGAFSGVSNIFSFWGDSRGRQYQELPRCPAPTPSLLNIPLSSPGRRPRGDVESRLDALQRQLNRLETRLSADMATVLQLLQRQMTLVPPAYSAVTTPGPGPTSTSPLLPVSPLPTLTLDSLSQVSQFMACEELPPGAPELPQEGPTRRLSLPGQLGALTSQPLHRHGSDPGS

As for `OC(Cn1cncn1)(Cn1cncn1)c1ccc(F)cc1F` [FLUCONAZOLE], the “fractional inhibitory concentration index (FICI)” value is given as 0.281 in the series on Cryptococcus neoformans [1]; 0.516 in the series with Candida tropicalis [2]; 0.188 with Cryptococcus neoformans [6]; 0.188 in the series with Cryptococcus neoformans [7]; 0.375 with Cryptococcus neoformans [12]. The MIC with Candida tropicalis [3] stood at 1 mg/L; in the series with Cryptococcus neoformans [4], 0.0625 mg/L; in series [5], 1 mg/L; in the series with Cryptococcus neoformans [9], 0.5 mg/L; in [10], 0.5 mg/L; in series [11], 0.5 mg/L. Also, the MIC came to 0.125 mg/L in the series with Cryptococcus neoformans [13] and 0.25 mg/L with Cryptococcus neoformans [14]. Further, the survival at 10 mg/kg in [8] was 70%.
Turning to `CCCCNC(=O)c1c(O)c2sccc2n(Cc2ccccc2)c1=O`, the “fractional inhibitory concentration index (FICI)” value in the series on Cryptococcus neoformans [15] came out at 0.188; in series [16], 0.25; in the series with Cryptococcus neoformans [17], 0.375; in the series with Cryptococcus neoformans [18], 0.25; in the series on Cryptococcus neoformans [19] it was 0.188; in the series on Cryptococcus neoformans [24], 0.156. Also, the “fractional inhibitory concentration index (FICI)” value in the series on Cryptococcus neoformans [26] turned out to be 0.156; in series [28] it was 0.25; in the series on Cryptococcus neoformans [32] it was 0.375; with Candida albicans, 1.008; in the series with Cryptococcus neoformans [36] it was 0.156. The C0 in series [20] stood at 2.46 µg/mL. Further, the pIC50 in series [21] is 4.63. The MIC in the series with Cryptococcus neoformans [22] came out at 0.0313 mg/L; with Nakaseomyces glabratus, 16 mg/L; in the series with Cryptococcus neoformans [23], 0.0625 mg/L; with Cryptococcus neoformans [30], 0.0625 mg/L; in the series on Pichia kudriavzevii it was 8 mg/L; in the series with Cryptococcus neoformans [33], 0.0313 mg/L. In addition, the results for the MIC in the series with Cryptococcus neoformans [34] and with Cryptococcus neoformans [35] were 0.0156 mg/L and 0.0625 mg/L, respectively. The half-life in series [25] was 15.3 h. For the same compound, in the series with Cryptococcus neoformans [27], the Activity amounted to 46.8%. This compound also yielded an MRT last in series [29] of 3.83 h. In series [31], this compound had a t1/2 of 7.61 h.
